Results published in paper PMC10269561, “Absence of Clinically Meaningful Drug-Drug Interactions with Rezafungin: Outcome of Investigations” (Microbiology Spectrum, 2023).
Numbered stars: 1 amine (or outer) side, 2 acyl side, 3 side chain; on linkers, the order of the positions; unused ones are H or OH. Bridge positions count the residues as written; N and C are the ends. Square brackets hold non-standard residues; d marks the D form. Peptide text beside a SMILES is read from it. * marks the point of attachment. Orn(4R-OH,5R-OCH2CH2NMe3+) = C[N+](C)(C)CCO[C@@H](N[*:3])[C@H](O)C[C@H](N[*:1])C(=O)[*:2]; pTerphenylCO(4''-OnC5H11) = CCCCCOc1ccc(-c2ccc(-c3ccc(C(=O)*)cc3)cc2)cc1; hTyr(3S-OH,4S-OH) = N[C@H](C(=O)O)[C@H](O)[C@@H](O)c1ccc(O)cc1; Pro(3S-OH,4S-Me) = C[C@H]1CN[C@H](C(=O)O)[C@H]1O; Hyp = O=C(O)[C@@H]1C[C@@H](O)CN1

Key:
human OATP1B1 = human OATP1B1 (Homo sapiens, UniProt Q9Y6L6); experiment: NC-152 transporter inhibition, OATP1B1; type: in vitro ADME; settings: in vitro cell test system
Chain of human OATP1B1 (Q9Y6L6 whole entry): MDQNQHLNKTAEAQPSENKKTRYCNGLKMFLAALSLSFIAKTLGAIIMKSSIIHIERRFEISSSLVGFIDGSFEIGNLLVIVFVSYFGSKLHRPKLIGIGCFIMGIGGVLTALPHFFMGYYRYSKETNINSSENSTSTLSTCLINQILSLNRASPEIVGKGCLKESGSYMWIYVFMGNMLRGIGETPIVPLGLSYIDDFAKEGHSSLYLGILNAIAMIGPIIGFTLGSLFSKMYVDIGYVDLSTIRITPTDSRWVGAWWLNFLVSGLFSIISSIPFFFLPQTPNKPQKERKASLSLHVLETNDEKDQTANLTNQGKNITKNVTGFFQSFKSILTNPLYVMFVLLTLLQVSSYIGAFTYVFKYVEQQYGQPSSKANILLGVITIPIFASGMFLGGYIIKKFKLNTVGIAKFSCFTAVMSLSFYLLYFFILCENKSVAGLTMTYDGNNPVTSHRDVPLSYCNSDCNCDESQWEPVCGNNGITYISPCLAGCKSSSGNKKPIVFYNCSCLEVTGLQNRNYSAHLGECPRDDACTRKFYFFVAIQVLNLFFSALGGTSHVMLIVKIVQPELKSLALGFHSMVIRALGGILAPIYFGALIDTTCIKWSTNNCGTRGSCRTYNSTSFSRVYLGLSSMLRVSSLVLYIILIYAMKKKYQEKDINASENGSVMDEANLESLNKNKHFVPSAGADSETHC
From the text: (§1) Microbiology Spectrum Supplementary materials
(§2) Table S 4Summary of initial in vitro assessments […]
(§3) whether rezafungin can induce CYP isoforms 1A2, 2B6, or 3A4. mRNA expression) of CYP1A2 and CYP2B6, and, in the case of […]
(§4) Abbreviations: ABC = ATP binding cassette; BCRP = breast cancer resistance protein; BSEP = bile salt export pump; CYP = cytochrome P450; MATE = multidrug and toxic compound extrusion; MDCK = Madin-Darby canine kidney; MDR = multidrug resistance protein; mRNA = messenger ribonucleic acid; OAT = organic anion transporter; OATP = organic anion transporter protein; OCT – organic cation transporter; OCTN = organic cation transporter novel; P-gp = P-glycoprotein; SLC = solute carrier.

[1] = tested on: Caco-2 epithelial monolayers; experiment: NC-049 membrane permeability in Caco-2 monolayers; type: in vitro ADME; settings: Caco-2 epithelial monolayers expressing human P-gp and BCRP; both transport directions, in the absence and presence of inhibitors; study NC-049
From the text: as §1, §2, §3, §4

[2] = cited from earlier work
From the text: Rezafungin is a novel echinocandin currently in development for the treatment of candidemia and invasive candidiasis as well as for prophylaxis against fungal diseases caused by Candida, Aspergillus, and Pneumocystis species in people undergoing allogeneic blood and marrow transplantation ([33][–][35]). […] It has als ...

human P-gp = human P-gp (Homo sapiens, UniProt P08183); experiment: NC-049 P-gp substrate potential in Caco-2 monolayers; type: in vitro ADME; settings: with/without inhibitors
Chain of human P-gp (P08183 whole entry): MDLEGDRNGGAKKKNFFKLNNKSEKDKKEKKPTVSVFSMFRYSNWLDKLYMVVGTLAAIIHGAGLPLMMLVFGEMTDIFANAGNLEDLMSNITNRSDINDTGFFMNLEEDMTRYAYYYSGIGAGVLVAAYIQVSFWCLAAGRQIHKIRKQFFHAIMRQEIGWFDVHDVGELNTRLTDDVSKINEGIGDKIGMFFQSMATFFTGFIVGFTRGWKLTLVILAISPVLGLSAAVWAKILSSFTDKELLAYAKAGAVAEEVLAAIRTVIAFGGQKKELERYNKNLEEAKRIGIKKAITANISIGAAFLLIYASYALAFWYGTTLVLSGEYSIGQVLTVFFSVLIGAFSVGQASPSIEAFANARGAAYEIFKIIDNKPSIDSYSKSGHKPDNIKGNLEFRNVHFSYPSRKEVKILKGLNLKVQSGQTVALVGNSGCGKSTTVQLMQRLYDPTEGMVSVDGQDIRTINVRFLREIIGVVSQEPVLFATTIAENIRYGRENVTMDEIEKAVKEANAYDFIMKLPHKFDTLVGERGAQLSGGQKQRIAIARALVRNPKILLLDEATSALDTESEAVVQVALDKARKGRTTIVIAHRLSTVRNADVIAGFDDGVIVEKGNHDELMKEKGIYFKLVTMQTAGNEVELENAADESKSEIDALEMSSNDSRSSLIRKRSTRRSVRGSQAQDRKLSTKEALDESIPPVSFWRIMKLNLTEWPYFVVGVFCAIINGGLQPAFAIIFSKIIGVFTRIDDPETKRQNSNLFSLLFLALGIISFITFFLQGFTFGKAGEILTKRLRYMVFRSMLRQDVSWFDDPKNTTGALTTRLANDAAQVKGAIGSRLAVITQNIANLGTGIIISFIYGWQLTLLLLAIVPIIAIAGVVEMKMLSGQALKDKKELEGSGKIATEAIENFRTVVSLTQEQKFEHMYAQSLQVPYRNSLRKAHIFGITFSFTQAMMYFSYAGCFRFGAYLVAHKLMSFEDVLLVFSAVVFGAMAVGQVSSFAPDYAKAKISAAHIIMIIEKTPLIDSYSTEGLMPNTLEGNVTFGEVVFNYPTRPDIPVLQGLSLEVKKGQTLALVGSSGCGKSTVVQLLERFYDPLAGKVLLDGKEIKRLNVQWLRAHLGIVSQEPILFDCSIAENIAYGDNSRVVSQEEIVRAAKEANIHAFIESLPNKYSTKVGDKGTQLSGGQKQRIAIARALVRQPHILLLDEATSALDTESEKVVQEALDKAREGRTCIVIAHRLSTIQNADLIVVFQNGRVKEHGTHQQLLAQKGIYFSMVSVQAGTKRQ
From the text: as §1, §2, §3, §4

[3] = Precipitation in human liver microsome incubations (NC-153); type: physicochemical
From the text: as §1, §2, §3, §4

human MATE1 = human MATE1 (Homo sapiens, UniProt Q96FL8); experiment: NC-152 transporter inhibition, MATE1; type: in vitro ADME
Chain of human MATE1 (Q96FL8 whole entry): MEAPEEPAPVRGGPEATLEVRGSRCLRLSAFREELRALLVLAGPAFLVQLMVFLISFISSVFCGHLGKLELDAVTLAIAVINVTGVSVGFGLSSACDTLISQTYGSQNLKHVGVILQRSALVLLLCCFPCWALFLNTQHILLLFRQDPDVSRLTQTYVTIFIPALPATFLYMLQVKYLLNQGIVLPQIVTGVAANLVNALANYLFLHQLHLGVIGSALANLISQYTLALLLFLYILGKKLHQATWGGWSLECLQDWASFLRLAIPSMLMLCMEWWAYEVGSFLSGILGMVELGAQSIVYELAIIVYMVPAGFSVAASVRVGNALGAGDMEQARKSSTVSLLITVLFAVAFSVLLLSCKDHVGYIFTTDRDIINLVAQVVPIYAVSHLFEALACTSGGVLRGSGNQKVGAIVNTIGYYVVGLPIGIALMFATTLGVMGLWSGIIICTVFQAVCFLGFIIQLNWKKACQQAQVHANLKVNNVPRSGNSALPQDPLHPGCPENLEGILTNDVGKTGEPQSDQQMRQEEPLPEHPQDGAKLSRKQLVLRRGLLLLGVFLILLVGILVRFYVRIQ
From the text: (§5) Abbreviations: ABC = ATP binding cassette; BCRP = breast cancer resistance protein; BSEP = bile salt export pump; CYP = cytochrome P450; MATE =
(§6) multidrug and toxic compound extrusion; MDCK = Madin-Darby canine kidney; MDR = multidrug resistance protein; mRNA = messenger ribonucleic acid;
(§7) OAT = organic anion transporter; OATP = organic anion transporter protein; OCT – organic cation transporter; OCTN = organic cation transporter novel; P-gp =
(§8) P-glycoprotein; SLC = solute carrier.

CYP2C8 [4] = target: T1, CYP2C8 (Homo sapiens, UniProt P10632); experiment: NC-013 CYP2C8 inhibition in human liver microsomes; type: in vitro ADME; set-up: in human liver microsomal preparations; from tissue; host or cells: human liver microsomes; settings: read-out: IC50, CYP2C8 (weak inhibition)
T1 sequence (P10632 1-490): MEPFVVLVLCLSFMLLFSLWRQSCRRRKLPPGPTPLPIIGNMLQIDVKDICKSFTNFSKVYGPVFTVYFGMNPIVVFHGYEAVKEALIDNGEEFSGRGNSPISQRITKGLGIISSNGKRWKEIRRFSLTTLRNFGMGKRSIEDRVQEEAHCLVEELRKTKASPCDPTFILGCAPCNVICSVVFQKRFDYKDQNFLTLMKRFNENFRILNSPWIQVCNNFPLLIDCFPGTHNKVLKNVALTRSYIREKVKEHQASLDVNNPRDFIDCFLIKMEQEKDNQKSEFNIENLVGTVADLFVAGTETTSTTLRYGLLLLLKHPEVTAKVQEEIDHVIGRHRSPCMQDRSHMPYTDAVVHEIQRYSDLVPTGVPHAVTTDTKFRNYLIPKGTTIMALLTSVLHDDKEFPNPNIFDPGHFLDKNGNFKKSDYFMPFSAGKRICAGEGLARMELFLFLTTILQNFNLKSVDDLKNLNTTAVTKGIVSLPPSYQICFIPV
From the text: as §5, §6, §7, §8

[5] = Study 2 safety and tolerability (TEAEs)
Experimental: After screening, subjects were admitted to the CRU on day −17 (prior to the first rezafungin dose) and were discharged on day 22. Rezafungin was dosed via i.v. infusion over 1 h at 400 mg on day 1 and 200 mg on day 8 and day 15. The oral drugs to be tested for interactions were each administered twice on a schedule designed to allow washout between doses: once alone and once while receiving rezafungin (Fig. 4B). The total duration of treatment was approximately 84 days, which included 45 days of screening and 39 days of treatment in the CRU.
In both studies, the safety population included all subjects who received any amount of the study drug. In study 1, the rezafungin safety population included all subjects who received any amount of rezafungin. Safety assessments included vital signs (temperature, heart rate, blood pressure, and respiratory rate), safety laboratory evaluations (hematology assessment, serum chemistry panel, and urinalysis), physical examinations (complete and symptom directed), and EKGs.
as §1
Abbreviations: TEAE = treatment-emergent adverse event.
N = number of subjects in the safety population; n = number of subjects in a sample.
Notes: Each TEAE was counted only once for each subject within each System Organ Class and Preferred Term.

CYP2C9 = CYP2C9 (Homo sapiens, UniProt P11712); experiment: NC-153 time-dependent inhibition in human liver microsomes, CYP2C9; type: in vitro ADME; settings: 0.1 to 25 μM
Chain of CYP2C9 (P11712 whole entry): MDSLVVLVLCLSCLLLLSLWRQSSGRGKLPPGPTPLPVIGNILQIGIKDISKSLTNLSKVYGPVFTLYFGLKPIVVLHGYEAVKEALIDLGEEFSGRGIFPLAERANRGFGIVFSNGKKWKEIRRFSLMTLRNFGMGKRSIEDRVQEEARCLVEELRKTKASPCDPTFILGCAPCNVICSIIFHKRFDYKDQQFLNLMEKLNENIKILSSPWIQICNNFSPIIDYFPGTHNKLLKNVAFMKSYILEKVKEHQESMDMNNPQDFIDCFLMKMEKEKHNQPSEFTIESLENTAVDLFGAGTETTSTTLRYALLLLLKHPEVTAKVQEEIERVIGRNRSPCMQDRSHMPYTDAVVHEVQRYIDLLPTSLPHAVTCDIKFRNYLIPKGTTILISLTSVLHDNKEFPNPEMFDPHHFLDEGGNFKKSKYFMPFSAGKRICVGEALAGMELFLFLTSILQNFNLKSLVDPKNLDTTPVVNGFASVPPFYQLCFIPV
From the text: as §1, §2, §3, §4

human OATP1B3 = human OATP1B3 (Homo sapiens, UniProt Q9NPD5); experiment: NC-152 transporter inhibition, OATP1B3; type: in vitro ADME
Chain of human OATP1B3 (Q9NPD5 whole entry): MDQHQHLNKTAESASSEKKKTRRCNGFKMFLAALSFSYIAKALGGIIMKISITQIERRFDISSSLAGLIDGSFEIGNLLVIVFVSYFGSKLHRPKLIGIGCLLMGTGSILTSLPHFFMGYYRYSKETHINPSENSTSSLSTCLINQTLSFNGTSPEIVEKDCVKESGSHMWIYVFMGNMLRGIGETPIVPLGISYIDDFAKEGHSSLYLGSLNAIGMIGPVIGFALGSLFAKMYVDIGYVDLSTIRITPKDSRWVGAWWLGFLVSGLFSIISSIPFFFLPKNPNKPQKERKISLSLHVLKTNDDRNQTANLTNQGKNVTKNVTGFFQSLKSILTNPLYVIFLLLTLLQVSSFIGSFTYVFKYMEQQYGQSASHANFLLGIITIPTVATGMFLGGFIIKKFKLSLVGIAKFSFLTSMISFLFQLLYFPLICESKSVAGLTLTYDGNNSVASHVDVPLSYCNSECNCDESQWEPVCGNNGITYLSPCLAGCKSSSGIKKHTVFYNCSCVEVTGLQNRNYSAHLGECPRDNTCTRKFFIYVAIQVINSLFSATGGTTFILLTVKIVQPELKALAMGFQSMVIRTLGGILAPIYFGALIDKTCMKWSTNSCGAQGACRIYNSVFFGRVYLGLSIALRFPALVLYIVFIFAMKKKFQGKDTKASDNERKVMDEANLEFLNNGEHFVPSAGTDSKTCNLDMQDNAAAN
From the text: as §5, §6, §7, §8

CYP2C8 [6] = target: T1, CYP2C8; experiment: NC-153 time-dependent inhibition in human liver microsomes, CYP2C8; type: in vitro ADME; set-up: in human liver microsomal preparations; from tissue; host or cells: human liver microsomes; settings: 0.1 to 25 μM
From the text: as §1, §2, §3, §4

[7] = in vitro cell test system, NC-152

SMILES: CCCCCOc1ccc(-c2ccc(-c3ccc(C(=O)N[C@H]4C[C@@H](O)[C@@H](OCC[N+](C)(C)C)NC(=O)[C@@H]5[C@@H](O)[C@@H](C)CN5C(=O)[C@H]([C@@H](C)O)NC(=O)[C@H]([C@H](O)[C@@H](O)c5ccc(O)cc5)NC(=O)[C@@H]5C[C@@H](O)CN5C(=O)[C@H]([C@@H](C)O)NC4=O)cc3)cc2)cc1 [Rezafungin] ({pTerphenylCO(4''-OnC5H11)}-[Orn(4R-OH,5R-OCH2CH2NMe3+)]T[Hyp][hTyr(3S-OH,4S-OH)]T[Pro(3S-OH,4S-Me)]; lactam 1-C)
- inhibitor of probe substrate transport mediated via OATP1B1 (human OATP1B1): determined to be an inhibitor
- permeability coefficient [1]: < 0.2 ×10⁻⁶ cm/s
- half-life [2]: around 130 h
- chemical stability ([2]; incubated in phosphate-buffered saline, no evidence of reactive intermediate formation): chemically stable
- metabolic stability in hepatocytes ([2]; preclinical data): metabolically stable
- metabolic stability in liver microsomes ([2]; preclinical data): metabolically stable
- substrate of P-gp (human P-gp): not a substrate
- concentration at which precipitation occurred [3]: ≥ 25 µM
- inhibitor of probe substrate transport mediated via MATE1 (human MATE1; [7]): determined to be an inhibitor
- IC50 (human MATE1; initial in vitro studies, read-out: IC50, MATE-1 uptake transporter (moderate inhibition)): > 6 µM
- IC50 (CYP2C8 [4]): > 25 µM
- deaths or serious adverse events ([5]; Study 2): no deaths or serious adverse events
- severe TEAE deemed by the investigator to be related to the drug ([5]; Study 2, one subject each): abdominal pain
- tolerability ([5]; once-weekly i.v. infusions, 400-mg loading dose followed by two 200-mg maintenance doses): generally well tolerated
- time-dependent inhibitor of CYP2C9 (CYP2C9): not a time-dependent inhibitor
- inhibitor of probe substrate transport mediated via OATP1B3 (human OATP1B3; [7]): determined to be an inhibitor
- IC50 (human OATP1B3; initial in vitro studies, read-out: IC50, OATP-1B3 uptake transporter (moderate inhibition)): > 6 µM
- time-dependent inhibitor of CYP2C8 (CYP2C8 [6]): not a time-dependent inhibitor
